Reference: US20150079207A1, “Method for manufacturing Smilax China L root extract having increased active ingredients and beverage composition containing the extract fordetoxification” (priority 2013, published 2015)

Assays:
Assay type in all cases: cell-based
HepG2 cells [1] = assay: Inhibition of formation of oxidatively damaged adducts caused by alcohol (DCFH-DA assay); details: 50, 100, 250 μM 2 h, then ethanol at IC50 24 h
Method: The DCFH-DA assay was generally described with reference to Evaluation Example 3.
(§1) Thereafter, the experimental groups and the control were treated with ethanol at an IC50 concentration, and cultured for 24 hours. Then, trypsin-EDTA was divided, and the cells were detached, and treated with a 5 μM DCFH-DA reagent. After 30 minutes, the fluorescence was measured at an excitation wavelength of 488 nm and an emission wavelength of 525 nm using a multi-microplate reader (Thermo scientific).

HepG2 cells [2] = assay: Inhibition of formation of oxidatively damaged adducts caused by nicotine (DCFH-DA assay); details: 50, 100, 250 μM (mixture 50, 100 μM) 2 h, then nicotine at IC50 24 h
Excerpt: When non-polar, uncharged DCFH-DA easily enters the cytoplasm through cell membranes, DCFH-DA is converted into 2′,7′-dichlorofluorescin (DCFH) showing no fluorescence by an intracellular enzyme, esterase, and DCFH is then oxidized into 2′,7′-dichlorofluorescein (DCF) showing fluorescence by various active oxygen produced in the cells. Since the measured fluorescence intensity is in proportion to a degree of intracellular oxidation, an effect of the index materials on oxidative damage of liver cells by nicotine was evaluated using the principle.
as §1, with “nicotine” for “ethanol”, “Trypsin-EDTA” for “Then, trypsin-EDTA”

HepG2 cells [3] = assay: Conversion rate of nicotine into cotinine (cotinine quantitative assay); details: HepG2 after 1 mM nicotine; 50, 100, 250 μM (mixture 50, 100 μM); 10-120 min
Method: HepG2 (passage #99-100) cells kindly provided from the Korean Cell Line Bank were sub-cultured, divided into a 96 well plate, and then cultured under conditions of 5% CO2 and 37° C. until the cells reached 100% confluence, and the medium was removed. Thereafter, the HepG2 cells were cultured for a day in a medium containing 1 mM nicotine. […] Subsequently, the cultured cells were dividedly treated with trypsin-EDTA, and detached, and centrifuged to collect a cell pellet. The cell pellet was suspended in 100 μl of PBS, and homogenated for 30 seconds using an ultrasonicator. 100 μl of a 4M sodium acetate buffer (pH 4.7), 40 μl of 1.5M potassium cyanide, 40 μl of 0.4M chloramine T, and 200 μl of 78 mM barbituric acid (in acetone/water (50/50)) were sequentially added to the homogenated cells, mixed for 10 seconds, and then reacted at room temperature for 15 minutes. Then, 40 μl of 1M sodium metabisulfite was added to the reaction mixture to stop the reaction. Then, the reaction mixture was measured for absorbance at a wavelength of 490 nm using a multi-microplate reader (Thermo scientific), and the absorbance of the reaction mixture was quantified by comparison to the standard curve of a cotinine sample.

HepG2 cells [4] = assay: Protective effect on hepatotoxicity caused by alcohol (MTT assay); details: 50, 100, 250 μM 2 h, then ethanol at IC50 24 h
Method: The MTT assay was generally described with reference to Evaluation Example 2.
Thereafter, the experimental groups and the control were treated with an aqueous solution of ethanol (50%) at an IC50 concentration, and cultured for 24 hours. After the medium was removed, the experimental groups and the control were treated with a 3-4,5 dimethylthiazol-2,5 diphenyltetrazolium bromide (MTT) reagent, and then cultured for 4 hours. Then, the medium was removed, and the experimental groups and the control were treated with a DMSO reagent, and measured for absorbance at a wavelength of 570 nm using a multi-microplate reader (Thermo scientific). Also, the cell viability was calculated using Equation 1.

Row | Structure (SMILES) | relative DCF fluorescence intensity (oxidatively damaged adducts by alcohol) vs alcohol-only control (HepG2 cells [1]) | relative DCF fluorescence intensity (oxidatively damaged adducts by nicotine) vs nicotine-only control (HepG2 cells [2]) | cotinine conversion rate vs nicotine-only control (HepG2 cells [3]) | absorbance (MTT, cell viability) vs alcohol-only control (HepG2 cells [4])
1 | Oc1cc(O)cc(/C=C/c2ccc(O)cc2O)c1 [oxyresveratrol] | relative DCF fluorescence intensity tended to decrease | relative DCF fluorescence intensity tended to decrease | cotinine conversion rate increased | absorbance increased as the concentration of the index material increased
2 | Oc1ccc(C=Cc2cc(O)cc(O)c2)cc1 [resveratrol] | – | – | cotinine conversion rate increased | absorbance increased as the concentration of the index material increased
